From patent US8440708B2, “Triazole-substituted arylamides as P2X3 and P2X2/3 antagonists” (Roche Palo Alto LLC, priority 2007, dated 2013) come the findings set out here.

Test [1] addresses T1, human P2X2/3 receptor (Homo sapiens, UniProt P56373+Q9UBL9).
T1 construct: expressed in transfected cells; host or cells: CHO-K1
T1 sequence (Q9UBL9 1-471): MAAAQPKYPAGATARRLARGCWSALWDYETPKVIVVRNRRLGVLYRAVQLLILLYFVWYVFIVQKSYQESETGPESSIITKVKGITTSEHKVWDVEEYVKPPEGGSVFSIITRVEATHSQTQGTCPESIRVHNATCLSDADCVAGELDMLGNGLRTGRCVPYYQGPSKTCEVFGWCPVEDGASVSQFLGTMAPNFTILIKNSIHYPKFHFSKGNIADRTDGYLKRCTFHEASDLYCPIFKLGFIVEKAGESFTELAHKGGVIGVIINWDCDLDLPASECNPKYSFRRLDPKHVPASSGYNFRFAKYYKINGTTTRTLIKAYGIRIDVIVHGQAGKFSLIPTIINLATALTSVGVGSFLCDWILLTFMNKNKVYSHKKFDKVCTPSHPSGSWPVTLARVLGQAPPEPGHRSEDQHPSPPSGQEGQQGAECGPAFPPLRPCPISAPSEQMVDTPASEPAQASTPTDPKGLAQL
T1 sequence (P56373 1-397): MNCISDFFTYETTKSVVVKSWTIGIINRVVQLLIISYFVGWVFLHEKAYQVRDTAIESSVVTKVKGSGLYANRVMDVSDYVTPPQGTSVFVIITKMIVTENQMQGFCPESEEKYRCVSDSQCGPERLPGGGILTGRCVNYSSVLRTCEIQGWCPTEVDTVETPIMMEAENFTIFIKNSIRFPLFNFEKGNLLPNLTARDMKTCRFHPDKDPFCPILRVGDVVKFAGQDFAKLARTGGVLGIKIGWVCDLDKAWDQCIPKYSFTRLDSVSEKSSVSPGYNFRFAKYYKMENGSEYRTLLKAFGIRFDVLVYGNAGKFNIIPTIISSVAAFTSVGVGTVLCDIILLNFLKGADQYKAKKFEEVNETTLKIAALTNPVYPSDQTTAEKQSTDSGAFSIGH
Nature of the test: P2X3/P2X2/3 FLIPR (Fluorometric Imaging Plate Reader) Assay, P2X2/3. Format: cell-based. As to conditions: CHO-K1 cells transfected with human P2X2/3; agonist α,β-meATP 5 μM; Table 1; read-out: P2X2/3 pKi (converted). The procedure, abridged:
(§1)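 Compounds were tested as antagonists of agonist-evoked calcium entry in CHO-K1 cells transfected with rat P2X3 or human P2X2/3. After 20 min with compound at room temperature, cells received α,β-meATP at 1 μM (P2X3) or 5 μM (P2X2/3), and peak fluorescence was recorded over 2 min.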

Test [2] deals with T2, rat P2X3 receptor (Rattus norvegicus, UniProt P49654).
T2 construct: expressed in transfected cells; host or cells: CHO-K1
T2 sequence (P49654 1-397): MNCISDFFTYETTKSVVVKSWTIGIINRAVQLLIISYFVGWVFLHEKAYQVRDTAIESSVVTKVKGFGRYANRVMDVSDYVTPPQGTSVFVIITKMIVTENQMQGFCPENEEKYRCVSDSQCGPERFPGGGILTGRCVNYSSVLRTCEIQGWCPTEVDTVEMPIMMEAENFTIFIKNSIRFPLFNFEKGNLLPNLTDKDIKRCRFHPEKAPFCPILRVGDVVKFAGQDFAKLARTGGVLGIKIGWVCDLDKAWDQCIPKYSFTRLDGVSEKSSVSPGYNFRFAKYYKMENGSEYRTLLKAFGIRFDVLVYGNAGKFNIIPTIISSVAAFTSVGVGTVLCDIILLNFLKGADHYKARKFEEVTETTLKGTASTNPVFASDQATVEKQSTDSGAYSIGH
Put plainly: P2X3/P2X2/3 FLIPR (Fluorometric Imaging Plate Reader) Assay, P2X3. Format: cell-based. The following applies: CHO-K1 cells transfected with rat P2X3; agonist α,β-meATP 1 μM; Table 1; read-out: P2X3 pKi (converted). The procedure, abridged: as §1

For `Cc1cnc(CNC(=O)c2cc(-c3ccc(Cl)cn3)cc(-n3ncnc3C(F)(F)F)c2)cn1` [Compound 80, 3-(5-Chloro-pyridin-2-yl)-N-(5-methyl-pyrazin-2-ylmethyl)-5-(5-trifluoromethyl-[1,2,4]triazol-1-yl)-benzamide], the Ki in test [1] is 275 nM; in test [2] it was 8.91 nM.
In the same order, the values of `C[C@@H](CO)NC(=O)c1cc(-c2ccc(Cl)cn2)cc(-n2ncnc2C(F)(F)F)c1` [Compound 81, 3-(5-Chloro-pyridin-2-yl)-N-((S)-2-hydroxy-1-methyl-ethyl)-5-(5-trifluoromethyl-[1,2,4]triazol-1-yl)-benzamide] are 3890 nM and 45.7 nM.
`Cc1ccc(-c2cc(C(=O)NCc3cnc(C)cn3)cc(-n3ncnc3C(C)(C)C)c2)nc1` [Compound 82, 3-(5-tert-Butyl-[1,2,4]triazol-1-yl)-N-(5-methyl-pyrazin-2-ylmethyl)-5-(5-methyl-pyridin-2-yl)-benzamide]: the Ki in test [1] was 1350 nM; in test [2] it was 6.03 nM.
In the same order, the values of `CC(NC(=O)c1cc(-c2ccc(Cl)cn2)cc(-n2ncnc2C(C)(C)C)c1)c1cnccn1` (centres unmarked) [Compound 83, 3-(5-tert-Butyl-[1,2,4]triazol-1-yl)-5-(5-chloro-pyridin-2-yl)-N-(1-pyrazin-2-yl-ethyl)-benzamide] are 115 nM and 12.3 nM.
In the same order, the values of `Cc1cnc(CNC(=O)c2cc(-c3ccc(Cl)cn3)cc(-n3ncnc3C(C)(C)C)c2)cn1` [Compound 84, 3-(5-tert-Butyl-[1,2,4]triazol-1-yl)-5-(5-chloro-pyridin-2-yl)-N-(5-methyl-pyrazin-2-ylmethyl)-benzamide] are 427 nM and 14.1 nM.
For `C[C@@H](CO)NC(=O)c1cc(-c2ccc(Cl)cn2)cc(-n2ncnc2C(C)(C)C)c1` [Compound 85, 3-(5-tert-Butyl-[1,2,4]triazol-1-yl)-5-(5-chloro-pyridin-2-yl)-N-((S)-2-hydroxy-1-methyl-ethyl)-benzamide], the Ki is 3550 nM in test [1] and 41.7 nM in test [2].
In the same order, the values of `Cc1ccc(-c2cc(C(=O)NCc3cnc(C)cn3)cc(-n3ncnc3C3CCC3)c2)nc1` [Compound 86, 3-(5-Cyclobutyl-[1,2,4]triazol-1-yl)-N-(5-methyl-pyrazin-2-ylmethyl)-5-(5-methyl-pyridin-2-yl)-benzamide] are 33.1 nM and 2.29 nM.
In the case of `Cc1ccc(-c2cc(C(=O)NC(C)c3cnccn3)cc(-n3ncnc3C3CCC3)c2)nc1` (centres unmarked) [Compound 87, 3-(5-Cyclobutyl-[1,2,4]triazol-1-yl)-5-(5-methyl-pyridin-2-yl)-N-(1-pyrazin-2-yl-ethyl)-benzamide], the Ki in test [1] was 35.5 nM; in test [2] it was 2.63 nM.
On to `Cc1cnc(CNC(=O)c2cc(-c3ccc(Cl)cn3)cc(-n3ncnc3CC(C)C)c2)cn1` [Compound 89, 3-(5-Chloro-pyridin-2-yl)-5-(5-isobutyl-[1,2,4]triazol-1-yl)-N-(5-methyl-pyrazin-2-ylmethyl)-benzamide], for which the Ki in test [1] was 89.1 nM; in test [2] it was 4.17 nM.
In the same order, the values of `CC(C)Cc1ncnn1-c1cc(C(=O)N[C@@H](C)CO)cc(-c2ccc(Cl)cn2)c1` [Compound 90, 3-(5-Chloro-pyridin-2-yl)-N-((S)-2-hydroxy-1-methyl-ethyl)-5-(5-isobutyl-[1,2,4]triazol-1-yl)-benzamide] are 646 nM and 4.07 nM.
Take `CC(NC(=O)c1cc(-c2ccc(Cl)cn2)cc(-n2ncnc2CF)c1)c1cnccn1` (centres unmarked) [Compound 91, 3-(5-Chloro-pyridin-2-yl)-5-(5-fluoromethyl-[1,2,4]triazol-1-yl)-N-(1-pyrazin-2-yl-ethyl)-benzamide]: the figures for the Ki in test [1] and in test [2] were 2950 nM and 31.6 nM, respectively.
Consider `Cc1cnc(CNC(=O)c2cc(-c3ccc(Cl)cn3)cc(-n3ncnc3CF)c2)cn1` [Compound 92, 3-(5-Chloro-pyridin-2-yl)-5-(5-fluoromethyl-[1,2,4]triazol-1-yl)-N-(5-methyl-pyrazin-2-ylmethyl)-benzamide], for which the values for the Ki in test [1] and in test [2] were 2570 nM and 21.4 nM, respectively.
In the same order, the values of `C[C@@H](CO)NC(=O)c1cc(-c2ccc(Cl)cn2)cc(-n2ncnc2CF)c1` [Compound 93, 3-(5-Chloro-pyridin-2-yl)-5-(5-fluoromethyl-[1,2,4]triazol-1-yl)-N-((S)-2-hydroxy-1-methyl-ethyl)-benzamide] are 10000 nM and 575 nM.
In the same order, the values of `Cc1ccc(-c2cc(C(=O)N[C@@H](C)CO)cc(-n3ncnc3C(C)(C)C)c2)nc1` [Compound 94, 3-(5-tert-Butyl-[1,2,4]triazol-1-yl)-N-((S)-2-hydroxy-1-methyl-ethyl)-5-(5-methyl-pyridin-2-yl)-benzamide] are 10000 nM and 12.3 nM.
In the same order, the values of `Cc1ccc(-c2cc(C(=O)NC(C)c3cnccn3)cc(-n3ncnc3C(C)(C)C)c2)nc1` (centres unmarked) [Compound 95, 3-(5-tert-Butyl-[1,2,4]triazol-1-yl)-5-(5-methyl-pyridin-2-yl)-N-(1-pyrazin-2-yl-ethyl)-benzamide] are 117 nM and 5.37 nM.
With `Cc1ccc(-c2cc(C(=O)NC3CC3)cc(-n3ncnc3C(F)(F)F)c2)nc1` [Compound 96, N-Cyclopropyl-3-(5-methyl-pyridin-2-yl)-5-(5-trifluoromethyl-[1,2,4]triazol-1-yl)-benzamide], the Ki was 1260 nM in test [1] and 4.57 nM in test [2].
In the same order, the values of `Cc1ccc(-c2cc(C(=O)N[C@@H](C)CO)cc(-n3ncnc3C(F)(F)F)c2)nc1` [Compound 97, N-((S)-2-Hydroxy-1-methyl-ethyl)-3-(5-methyl-pyridin-2-yl)-5-(5-trifluoromethyl-[1,2,4]triazol-1-yl)-benzamide] are 4680 nM and 8.13 nM.
In the case of `Cc1ccc(-c2cc(C(=O)NC(C)c3cnccn3)cc(-n3ncnc3C(F)(F)F)c2)nc1` (centres unmarked) [Compound 98, 3-(5-Methyl-pyridin-2-yl)-N-(1-pyrazin-2-yl-ethyl)-5-(5-trifluoromethyl-[1,2,4]triazol-1-yl)-benzamide], the Ki in test [1] was 45.7 nM; in test [2], 2.24 nM.
In the same order, the values of `Cc1ccc(-c2cc(C(=O)NCc3cnc(C)cn3)cc(-n3ncnc3C(F)(F)F)c2)nc1` [Compound 99, N-(5-Methyl-pyrazin-2-ylmethyl)-3-(5-methyl-pyridin-2-yl)-5-(5-trifluoromethyl-[1,2,4]triazol-1-yl)-benzamide] are 36.3 nM and 3.24 nM.
Turning to `Cc1ccc(-c2cc(C(=O)NC(C)c3cnccn3)cc(-n3ncnc3C)c2)nc1` (centres unmarked) [Compound 100, 3-(5-Methyl-pyridin-2-yl)-5-(5-methyl-[1,2,4]triazol-1-yl)-N-(1-pyrazin-2-yl-ethyl)-benzamide], the Ki was 2040 nM in test [1] and 10.2 nM in test [2].
In the same order, the values of `Cc1ccc(-c2cc(C(=O)NCc3cnc(C)cn3)cc(-n3ncnc3C)c2)nc1` [Compound 101, N-(5-Methyl-pyrazin-2-ylmethyl)-3-(5-methyl-pyridin-2-yl)-5-(5-methyl-[1,2,4]triazol-1-yl)-benzamide] are 1150 nM and 7.94 nM.
Regarding `Cc1ccc(-c2cc(C(=O)N[C@@H](C)CO)cc(-n3ncnc3C)c2)nc1` [Compound 102, N-((S)-2-Hydroxy-1-methyl-ethyl)-3-(5-methyl-pyridin-2-yl)-5-(5-methyl-[1,2,4]triazol-1-yl)-benzamide], the results for the Ki in test [1] and in test [2] were 10000 nM and 263 nM, respectively.
